Test results: patent US20260151391A1, “TREATMENT OF MITOCHONDRIAL DISEASES WITH sGC STIMULATORS” (Tisento Therapeutics Inc., priority 2022, published 2026)

System: sGC
Assay: cGMP neuronal cell-based assay (rat primary neurons)
Conditions: rat primary hippocampal neurons, DETA-NO 10 μM or 30 μM, cGMP by LC-MS/MS; I-20 and I-14: average of free acid and sodium salt; read-out: sGC Neuron EC50
Experimental: Rat primary neurons were isolated from fetuses of 18-day pregnant Sprague-Dawley females. The fetuses were collected in Hanks' balanced salt solution (HBSS) and brains were rapidly removed. The cerebral hippocampi were isolated and mechanically fragmented. Further tissue digestion was performed with 0.25% (wt/vol) trypsin solution in HBSS without Ca2+ and Mg2+ for 15 min at 37° C. After trypsination, cells were washed and resuspended in neurobasal medium supplemented with 0.5 mM L-glutamine, 12.5 uM glutamic acid, 2% B-27 and 100 U/mL penicillin, and 100 μg/mL streptomycin. Cells were plated at a density of 26×10^3 or 3×10^4 or 4×10^4 cells/well in a poly-D-lysine coated 384-well flat clear-bottom plate (Corning Cat No 354662). Cells were incubated 6-7 days at 37° C. in a humidified chamber with 5% CO2. Media was removed and cells were washed 1× with HBSS containing Ca2+ and Mg2+, and replaced with 40 uL HBSS containing 0.5 mM IBMX, and incubated for 15 minutes at 37° C. […] Following centrifugation at 4° C. for 5 minutes at 1000×g to pellet cell debris, the supernatant was aspirated to a clean plate and the samples were analyzed for cGMP content. cGMP concentrations were determined from each sample using LC-MS/MS.
Concentration response data were analyzed using a 4-parameter fit (log (agonist) vs. response-variable slope). […]

EC50: ≤ 100 nM
Structure (SMILES): Cc1cc(F)c(Cc2nc(-c3ncc(F)c(O)n3)cn3ccnc23)cc1F [Compound I-14, 5-fluoro-2-(8-(2,5-difluoro-4-methylbenzyl)imidazo[1,2-a]pyrazin-6-yl)pyrimidin-4-ol]
